Reference: the NIST ThermoML archive (doi:10.1021/je060210c)

Legend:
[1] = xn = mol fraction of the nth substance listed; conditions: 101 kPa, Liquid; for speed of sound: Sing-around technique in a fixed-path interferometer
[2] = excess molar enthalpy (molar enthalpy of mixing); xn = mol fraction of the nth substance listed; conditions: 101 kPa, Liquid

C=C1CCC2CC1C2(C)C (stereo not drawn) [β-pinene] + CCCCCO
Conditions | excess molar enthalpy [kcal/mol] | mass density [kg/m3] | speed of sound [m/s]
[1], 283.15 K, x1 = 0.1075 | – | 830.13 | 1327.7
[1], 283.15 K, x1 = 0.2016 | – | 836.79 | 1328.9
[1], 283.15 K, x1 = 0.3016 | – | 843.32 | 1330.6
[1], 283.15 K, x1 = 0.4028 | – | 849.41 | 1331.6
[1], 283.15 K, x1 = 0.5026 | – | 854.98 | 1333.2
[1], 283.15 K, x1 = 0.6034 | – | 860.24 | 1335.1
[1], 283.15 K, x1 = 0.7014 | – | 865.12 | 1337.8
[1], 283.15 K, x1 = 0.8036 | – | 869.97 | 1341.4
[1], 283.15 K, x1 = 0.9009 | – | 874.43 | 1346.2
[1], 283.15 K, x1 = 0.9481 | – | 876.59 | 1349.3
[1], 298.15 K, x1 = 0.1004 | – | – | 1275
[1], 298.15 K, x1 = 0.1057 | – | 819.15 | –
[1], 298.15 K, x1 = 0.2012 | – | 825.47 | –
[1], 298.15 K, x1 = 0.2024 | – | – | 1275.5
[1], 298.15 K, x1 = 0.3032 | – | 831.91 | –
[1], 298.15 K, x1 = 0.3081 | – | – | 1275.8
[1], 298.15 K, x1 = 0.3975 | – | – | 1275.9
[1], 298.15 K, x1 = 0.4023 | – | 837.67 | –
[1], 298.15 K, x1 = 0.4982 | – | – | 1276.4
[1], 298.15 K, x1 = 0.4984 | – | 842.91 | –
[1], 298.15 K, x1 = 0.6021 | – | 848.24 | 1277.9
[1], 298.15 K, x1 = 0.6945 | – | 852.74 | –
[1], 298.15 K, x1 = 0.696 | – | – | 1279.6
[1], 298.15 K, x1 = 0.7994 | – | 857.65 | –
[1], 298.15 K, x1 = 0.8066 | – | – | 1283
[1], 298.15 K, x1 = 0.8952 | – | – | 1286.9
[1], 298.15 K, x1 = 0.8997 | – | 862.25 | –
[1], 298.15 K, x1 = 0.9465 | – | 864.37 | –
[1], 298.15 K, x1 = 0.9528 | – | – | 1291
[1], 313.15 K, x1 = 0.1007 | – | 807.27 | –
[1], 313.15 K, x1 = 0.1023 | – | – | 1223.7
[1], 313.15 K, x1 = 0.2007 | – | – | 1221.7
[1], 313.15 K, x1 = 0.2048 | – | 814.01 | –
[1], 313.15 K, x1 = 0.3027 | – | 819.95 | –
[1], 313.15 K, x1 = 0.3049 | – | – | 1220.9
[1], 313.15 K, x1 = 0.4019 | – | 825.6 | 1220.4
[1], 313.15 K, x1 = 0.5024 | – | 830.92 | 1220.6
[1], 313.15 K, x1 = 0.5976 | – | 835.75 | 1221.2
[1], 313.15 K, x1 = 0.6977 | – | 840.54 | 1222.1
[1], 313.15 K, x1 = 0.7991 | – | 845.26 | 1224.3
[1], 313.15 K, x1 = 0.9066 | – | 850.18 | 1228.6
[1], 313.15 K, x1 = 0.9468 | – | 852.1 | 1231
[2], 283.15 K, x1 = 0.049 | 0.00669 | – | –
[2], 283.15 K, x1 = 0.096 | 0.0155 | – | –
[2], 283.15 K, x1 = 0.192 | 0.0325 | – | –
[2], 283.15 K, x1 = 0.286 | 0.05 | – | –
[2], 283.15 K, x1 = 0.388 | 0.0645 | – | –
[2], 283.15 K, x1 = 0.488 | 0.0753 | – | –
[2], 283.15 K, x1 = 0.588 | 0.081 | – | –
[2], 283.15 K, x1 = 0.69 | 0.0825 | – | –
[2], 283.15 K, x1 = 0.791 | 0.077 | – | –
[2], 283.15 K, x1 = 0.892 | 0.0605 | – | –
[2], 283.15 K, x1 = 0.95 | 0.0478 | – | –
[2], 283.15 K, x1 = 0.97 | 0.0359 | – | –
[2], 283.15 K, x1 = 0.99 | 0.0227 | – | –
[2], 298.15 K, x1 = 0.049 | 0.0177 | – | –
[2], 298.15 K, x1 = 0.096 | 0.037 | – | –
[2], 298.15 K, x1 = 0.192 | 0.075 | – | –
[2], 298.15 K, x1 = 0.286 | 0.11 | – | –
[2], 298.15 K, x1 = 0.388 | 0.14 | – | –
[2], 298.15 K, x1 = 0.488 | 0.16 | – | –
[2], 298.15 K, x1 = 0.588 | 0.172 | – | –
[2], 298.15 K, x1 = 0.69 | 0.174 | – | –
[2], 298.15 K, x1 = 0.791 | 0.161 | – | –
[2], 298.15 K, x1 = 0.892 | 0.126 | – | –
[2], 298.15 K, x1 = 0.95 | 0.092 | – | –
[2], 298.15 K, x1 = 0.97 | 0.0731 | – | –
[2], 298.15 K, x1 = 0.99 | 0.0588 | – | –
[2], 313.15 K, x1 = 0.049 | 0.0256 | – | –
[2], 313.15 K, x1 = 0.096 | 0.0535 | – | –
[2], 313.15 K, x1 = 0.192 | 0.106 | – | –
[2], 313.15 K, x1 = 0.286 | 0.155 | – | –
[2], 313.15 K, x1 = 0.388 | 0.194 | – | –
[2], 313.15 K, x1 = 0.488 | 0.221 | – | –
[2], 313.15 K, x1 = 0.588 | 0.236 | – | –
[2], 313.15 K, x1 = 0.69 | 0.238 | – | –
[2], 313.15 K, x1 = 0.791 | 0.222 | – | –
[2], 313.15 K, x1 = 0.892 | 0.182 | – | –
[2], 313.15 K, x1 = 0.95 | 0.128 | – | –
[2], 313.15 K, x1 = 0.97 | 0.0954 | – | –
[2], 313.15 K, x1 = 0.99 | 0.0327 | – | –

C=C1CCC2CC1C2(C)C (stereo not drawn) [β-pinene] + CCCC(C)O
Conditions | excess molar enthalpy [kcal/mol] | mass density [kg/m3] | speed of sound [m/s]
[1], 283.15 K, x1 = 0.104 | – | 824.99 | 1291.4
[1], 283.15 K, x1 = 0.2047 | – | 832.2 | 1295.3
[1], 283.15 K, x1 = 0.3071 | – | 839.03 | 1299.3
[1], 283.15 K, x1 = 0.3997 | – | 844.95 | 1303.5
[1], 283.15 K, x1 = 0.4964 | – | 850.86 | 1308.8
[1], 283.15 K, x1 = 0.6058 | – | 857.28 | 1316.2
[1], 283.15 K, x1 = 0.6929 | – | 862.26 | 1323.1
[1], 283.15 K, x1 = 0.8016 | – | 868.23 | 1332.7
[1], 283.15 K, x1 = 0.904 | – | 873.67 | 1342.4
[1], 283.15 K, x1 = 0.9454 | – | 875.83 | 1346.8
[1], 298.15 K, x1 = 0.1056 | – | 812.89 | 1235
[1], 298.15 K, x1 = 0.2051 | – | 819.88 | 1238.6
[1], 298.15 K, x1 = 0.3052 | – | 826.49 | 1241.5
[1], 298.15 K, x1 = 0.4038 | – | 832.72 | 1245.8
[1], 298.15 K, x1 = 0.5068 | – | 838.99 | 1251.5
[1], 298.15 K, x1 = 0.601 | – | 844.56 | 1257.8
[1], 298.15 K, x1 = 0.695 | – | 849.94 | 1265
[1], 298.15 K, x1 = 0.8014 | – | 855.84 | 1273.7
[1], 298.15 K, x1 = 0.9001 | – | 861.15 | 1282.7
[1], 298.15 K, x1 = 0.9499 | – | 863.9 | 1288.2
[1], 313.15 K, x1 = 0.1069 | – | 800.02 | 1170.1
[1], 313.15 K, x1 = 0.1981 | – | 806.39 | 1173.2
[1], 313.15 K, x1 = 0.3039 | – | 813.43 | 1177.7
[1], 313.15 K, x1 = 0.4034 | – | 819.78 | 1182.2
[1], 313.15 K, x1 = 0.5067 | – | 826.14 | 1188.2
[1], 313.15 K, x1 = 0.6023 | – | 831.84 | 1195.1
[1], 313.15 K, x1 = 0.7005 | – | 837.55 | 1203.4
[1], 313.15 K, x1 = 0.7975 | – | 843.07 | 1212.8
[1], 313.15 K, x1 = 0.8956 | – | – | 1223.2
[1], 313.15 K, x1 = 0.8957 | – | 848.53 | –
[1], 313.15 K, x1 = 0.9497 | – | 851.6 | 1229.6
[2], 283.15 K, x1 = 0.049 | 0.0299 | – | –
[2], 283.15 K, x1 = 0.1 | 0.0631 | – | –
[2], 283.15 K, x1 = 0.193 | 0.117 | – | –
[2], 283.15 K, x1 = 0.294 | 0.163 | – | –
[2], 283.15 K, x1 = 0.395 | 0.194 | – | –
[2], 283.15 K, x1 = 0.495 | 0.21 | – | –
[2], 283.15 K, x1 = 0.591 | 0.21 | – | –
[2], 283.15 K, x1 = 0.695 | 0.194 | – | –
[2], 283.15 K, x1 = 0.794 | 0.168 | – | –
[2], 283.15 K, x1 = 0.9 | 0.123 | – | –
[2], 283.15 K, x1 = 0.942 | 0.092 | – | –
[2], 283.15 K, x1 = 0.971 | 0.066 | – | –
[2], 283.15 K, x1 = 0.985 | 0.0356 | – | –
[2], 298.15 K, x1 = 0.049 | 0.0382 | – | –
[2], 298.15 K, x1 = 0.1 | 0.0803 | – | –
[2], 298.15 K, x1 = 0.193 | 0.149 | – | –
[2], 298.15 K, x1 = 0.294 | 0.206 | – | –
[2], 298.15 K, x1 = 0.395 | 0.243 | – | –
[2], 298.15 K, x1 = 0.495 | 0.263 | – | –
[2], 298.15 K, x1 = 0.591 | 0.263 | – | –
[2], 298.15 K, x1 = 0.695 | 0.253 | – | –
[2], 298.15 K, x1 = 0.794 | 0.224 | – | –
[2], 298.15 K, x1 = 0.9 | 0.172 | – | –
[2], 298.15 K, x1 = 0.942 | 0.124 | – | –
[2], 298.15 K, x1 = 0.971 | 0.0875 | – | –
[2], 298.15 K, x1 = 0.985 | 0.0452 | – | –
[2], 313.15 K, x1 = 0.049 | 0.05 | – | –
[2], 313.15 K, x1 = 0.1 | 0.0987 | – | –
[2], 313.15 K, x1 = 0.193 | 0.179 | – | –
[2], 313.15 K, x1 = 0.294 | 0.245 | – | –
[2], 313.15 K, x1 = 0.395 | 0.289 | – | –
[2], 313.15 K, x1 = 0.495 | 0.315 | – | –
[2], 313.15 K, x1 = 0.591 | 0.321 | – | –
[2], 313.15 K, x1 = 0.695 | 0.313 | – | –
[2], 313.15 K, x1 = 0.794 | 0.286 | – | –
[2], 313.15 K, x1 = 0.9 | 0.21 | – | –
[2], 313.15 K, x1 = 0.942 | 0.153 | – | –
[2], 313.15 K, x1 = 0.971 | 0.0968 | – | –
[2], 313.15 K, x1 = 0.985 | 0.0442 | – | –
